# Data reported in article PMC8286840, “Identifying SARS-CoV-2 antiviral compounds by screening for small molecule inhibitors of Nsp3 papain-like protease” (Biochemical Journal, 2021).
# Counter-ions that a name gives are not always drawn. Like-named read-outs stand apart in the source and are kept apart here. Where a SMILES comes first, the peptide text is derived from it. Bridges are numbered along the chain shown (N, C = ends). [ ]: non-standard residue; d: D form. 2Nal = N[C@@H](Cc1ccc2ccccc2c1)C(=O)O; Lys(iPr) = CC(C)NCCCC[C@H](N)C(=O)O
# Columns and labels:
# [1] = target: T1, SARS-CoV-2 PLpro (nsp3 1564–1878) (Severe acute respiratory syndrome coronavirus 2, UniProt P0DTD1); assay: biochemical; set-up: FRET-quenched peptide (Pro3) cleavage by PLpro, 10 min pre-incubation, slope over 20 min, normalised to no-compound control; conditions: read-out: % of control remaining
# [2] = target: T1, SARS-CoV-2 PLpro (nsp3 1564–1878); assay: biochemical; set-up: FRET-quenched peptide (Pro3) cleavage by PLpro, 10 min pre-incubation, slope over 20 min, normalised to no-compound control; conditions: read-out: % of control remaining; remark: listed apart in the source
compound,measurement,setting,value
C[C@](N)(Cc1ccc(O)cc1)C(=O)O [L-alpha-Methyl-p-tyrosine],remaining activity at 1.25 µM,"[1]; Well no.=843, low concentration screen",104%
same,remaining activity at 3.75 µM,"[2]; Well no.=843, high concentration screen",106%
O=C(O)[C@@H]1CCN1 [L-azetidine-2-carboxylic acid],remaining activity at 1.25 µM,"[1]; Well no.=103, low concentration screen",105%
same,remaining activity at 3.75 µM,"[2]; Well no.=103, high concentration screen",104%
C[N+](C)(C)C[C@H](O)CC(=O)[O-] [L-carnitine],remaining activity at 1.25 µM,"[1]; Well no.=8100, low concentration screen",106%
same,remaining activity at 3.75 µM,"[2]; Well no.=8100, high concentration screen",104%
N[C@@H](Cc1cc(I)c(Oc2cc(I)c(O)c(I)c2)c(I)c1)C(=O)O [L-thyroxine],remaining activity at 1.25 µM,"[1]; Well no.=2298, low concentration screen",86.3%
same,remaining activity at 1.25 µM,"[1]; Well no.=7299, low concentration screen",102%
same,remaining activity at 3.75 µM,"[2]; Well no.=2298, high concentration screen",88.2%
same,remaining activity at 3.75 µM,"[2]; Well no.=7299, high concentration screen",105%
O=C(Nc1cnc(-c2ccncc2F)c(-c2cccnc2)n1)C1CC1 [LAS101057],remaining activity at 1.25 µM,"[1]; Well no.=8599, low concentration screen",105%
same,remaining activity at 3.75 µM,"[2]; Well no.=8599, high concentration screen",103%
O=C(c1cn(Cc2cncn2Cc2ccc(Br)cc2)cc1-c1cccc2ccccc12)N1CCOCC1 [LB42708],remaining activity at 1.25 µM,"[1]; Well no.=8766, low concentration screen",99.3%
same,remaining activity at 3.75 µM,"[2]; Well no.=8766, high concentration screen",91.4%
N#Cc1ccc([C@H]2CCc3cncn32)c(F)c1 [LCI699],remaining activity at 1.25 µM,"[1]; Well no.=8526, low concentration screen",98.2%
same,remaining activity at 3.75 µM,"[2]; Well no.=8526, high concentration screen",98.2%
CN[C@@H](C)C(=O)N[C@H](C(=O)N1CCC[C@H]1c1nc(C(=O)c2ccc(F)cc2)cs1)C1CCCCC1 [LCL161],remaining activity at 1.25 µM,"[1]; Well no.=6594, low concentration screen",91.2%
same,remaining activity at 3.75 µM,"[2]; Well no.=6594, high concentration screen",94.5%
c1ccc2c(-c3cnn4cc(-c5ccc(N6CCNCC6)cc5)cnc34)ccnc2c1 [LDN193189],remaining activity at 1.25 µM,"[1]; Well no.=4956, low concentration screen",99.3%
same,remaining activity at 3.75 µM,"[2]; Well no.=4956, high concentration screen",97.7%
CC(=O)O/N=C1\C(=O)N(Cc2cc(Cl)ccc2Cl)c2ccc(Cl)cc21 [LDN-57444],remaining activity at 1.25 µM,"[1]; Well no.=5908, low concentration screen",94.9%
same,remaining activity at 3.75 µM,"[2]; Well no.=5908, high concentration screen",91.7%
CN1CCc2ccccc2Cc2[nH]c3ccccc3c2CC1 [LE 300],remaining activity at 1.25 µM,"[1]; Well no.=1027, low concentration screen",101%
same,remaining activity at 3.75 µM,"[2]; Well no.=1027, high concentration screen",101%
"C/C(O)=C(\C#N)C(=O)Nc1cc(Br)ccc1Br [LFM-A13 - 2-Cyano-N-(2,5-dibromophenyl)-3-hydroxy-2-butenamide]",remaining activity at 1.25 µM,"[1]; Well no.=2384, low concentration screen",101%
same,remaining activity at 3.75 µM,"[2]; Well no.=2384, high concentration screen",102%
C/C(O)=C(\C#N)C(=O)Nc1cc(Br)ccc1Br [LFM-A13],remaining activity at 1.25 µM,"[1]; Well no.=789, low concentration screen",99.1%
same,remaining activity at 3.75 µM,"[2]; Well no.=789, high concentration screen",97.7%
Clc1ccc(Nc2nc3ccccc3c3nc(C4CCCCC4)[nH]c23)cc1Cl [LUF6000],remaining activity at 1.25 µM,"[1]; Well no.=8661, low concentration screen",93.9%
same,remaining activity at 3.75 µM,"[2]; Well no.=8661, high concentration screen",93.1%
CC1(C)C(=O)N(CCN2CCC(C(=O)c3ccc(F)cc3)CC2)c2ccccc21 [LY310762],remaining activity at 1.25 µM,"[1]; Well no.=7237, low concentration screen",102%
same,remaining activity at 3.75 µM,"[2]; Well no.=7237, high concentration screen",100%
CCc1c(CC(N)=O)c2cc(OCCCP(=O)(O)O)ccc2n1Cc1ccccc1 [LY311727],remaining activity at 1.25 µM,"[1]; Well no.=5502, low concentration screen",102%
same,remaining activity at 3.75 µM,"[2]; Well no.=5502, high concentration screen",109%
C[C@H](NC(=O)[C@@H](O)c1cc(F)cc(F)c1)C(=O)N[C@@H]1C(=O)N(C)c2ccccc2-c2ccccc21 [LY411575],remaining activity at 1.25 µM,"[1]; Well no.=4689, low concentration screen",102%
same,remaining activity at 3.75 µM,"[2]; Well no.=4689, high concentration screen",101%
O=C1NC(=O)C(c2cnc3ccccn23)=C1c1cn2c3c(cc(F)cc13)CN(C(=O)N1CCCCC1)CC2 [LY2090314],remaining activity at 1.25 µM,"[1]; Well no.=5645, low concentration screen",98.7%
same,remaining activity at 3.75 µM,"[2]; Well no.=5645, high concentration screen",98.2%
c1ccc(-c2nn3c(c2-c2ccnc4cc(OCCN5CCOCC5)ccc24)CCC3)nc1 [LY2109761],remaining activity at 1.25 µM,"[1]; Well no.=4685, low concentration screen",103%
same,remaining activity at 3.75 µM,"[2]; Well no.=4685, high concentration screen",103%
Cc1cccc(-c2nn3c(c2-c2ccnc4ccc(C(N)=O)cc24)CCC3)n1 [LY2157299],remaining activity at 1.25 µM,"[1]; Well no.=4856, low concentration screen",99.9%
same,remaining activity at 3.75 µM,"[2]; Well no.=4856, high concentration screen",98.9%
CC(C)(C)Cn1c(N)nc2ccc(-c3[nH]c(C(C)(C)C)nc3-c3ccc(F)cc3)nc21 [LY2228820],remaining activity at 1.25 µM,"[1]; Well no.=4915, low concentration screen",98.6%
same,remaining activity at 3.75 µM,"[2]; Well no.=4915, high concentration screen",99.6%
CC(C)NCCCC[C@H](NC(=O)[C@H]1CCC(=O)N[C@@H](Cc2ccccc2)C(=O)N[C@@H](Cc2ccc(O)cc2)C(=O)N[C@@H](CCCCNC(C)C)C(=O)N[C@H](CCCN=C(N)N)C(=O)N[C@@H](Cc2ccc3ccccc3c2)C(=O)NCC(=O)N1)C(N)=O [LY2510924] (FY[Lys(iPr)][dR][2Nal]G[dE][Lys(iPr)]-NH2; lactam N-7),remaining activity at 1.25 µM,"[1]; Well no.=8513, low concentration screen",101%
same,remaining activity at 3.75 µM,"[2]; Well no.=8513, high concentration screen",102%
O=C(Nc1ncc(SCCN2CCCC2)s1)[C@]1(c2ccc(S(=O)(=O)C3CC3)cc2)C[C@H]1C1CCCCC1 [LY2608204],remaining activity at 1.25 µM,"[1]; Well no.=4772, low concentration screen",100%
same,remaining activity at 3.75 µM,"[2]; Well no.=4772, high concentration screen",99.2%
Cc1cc(Nc2cc(CN3CCOCC3)c3nc(C)c(Cc4ccc(Cl)cc4F)n3n2)n[nH]1 [LY2784544],remaining activity at 1.25 µM,"[1]; Well no.=4806, low concentration screen",98.3%
same,remaining activity at 3.75 µM,"[2]; Well no.=4806, high concentration screen",101%
C[C@@]1(c2cc(-c3cncnc3)c(F)cc2F)CCSC(N)=N1 [LY2811376],remaining activity at 1.25 µM,"[1]; Well no.=4949, low concentration screen",101%
same,remaining activity at 3.75 µM,"[2]; Well no.=4949, high concentration screen",103%
NC1=N[C@@]2(c3cc(NC(=O)c4ccc(F)cn4)ccc3F)COC[C@H]2CS1 [LY2886721],remaining activity at 1.25 µM,"[1]; Well no.=4774, low concentration screen",99.9%
same,remaining activity at 3.75 µM,"[2]; Well no.=4774, high concentration screen",102%
CN(C(=O)c1ccc(F)cc1C(F)(F)F)C1CCN(c2nnc(-c3ccnn3C)c3ccccc23)CC1 [LY2940680],remaining activity at 1.25 µM,"[1]; Well no.=4890, low concentration screen",88.9%
same,remaining activity at 3.75 µM,"[2]; Well no.=4890, high concentration screen",82.4%
O=c1cc(N2CCOCC2)oc2c(-c3ccccc3)cccc12 [LY 294002 hydrochloride - 2-(4-Morpholinyl)-8-phenyl-4H-1-benzopyran-4-one hydrochloride],remaining activity at 1.25 µM,"[1]; Well no.=2344, low concentration screen",97.3%
same,remaining activity at 3.75 µM,"[2]; Well no.=2344, high concentration screen",98.8%
O=c1cc(N2CCOCC2)oc2c(-c3ccccc3)cccc12 [LY 294002],remaining activity at 1.25 µM,"[1]; Well no.=2465, low concentration screen",101%
same,remaining activity at 3.75 µM,"[2]; Well no.=2465, high concentration screen",102%
O=c1cc(N2CCNCC2)oc2c(-c3ccccc3)cccc12 [LY 303511],remaining activity at 1.25 µM,"[1]; Well no.=2467, low concentration screen",102%
same,remaining activity at 3.75 µM,"[2]; Well no.=2467, high concentration screen",106%
CN(C)[C@@H]1CCc2[nH]c3ccc(NC(=O)c4ccc(F)cc4)cc3c2C1 [LY 344864],remaining activity at 1.25 µM,"[1]; Well no.=7289, low concentration screen",93.4%
same,remaining activity at 3.75 µM,"[2]; Well no.=7289, high concentration screen",91.2%
c1ccc(-c2[nH]ncc2-c2ccnc3ccccc23)nc1 [LY 364947 - 4-[3-(2-Pyridinyl)-1H-pyrazol-4-yl]-quinoline],remaining activity at 1.25 µM,"[1]; Well no.=2622, low concentration screen",96.3%
same,remaining activity at 3.75 µM,"[2]; Well no.=2622, high concentration screen",101%
"CC(O)C(C)OC(=O)[C@@H]1C[C@@H]2c3cccc4c3c(cn4C(C)C)C[C@H]2N(C)C1 (stereo partly drawn) [LY-53,857 maleate]",remaining activity at 1.25 µM,"[1]; Well no.=772, low concentration screen",99.8%
same,remaining activity at 3.75 µM,"[2]; Well no.=772, high concentration screen",97.2%
"CCCc1c(OCCCCc2nnn[nH]2)ccc(C(C)=O)c1O [LY-171,883]",remaining activity at 1.25 µM,"[1]; Well no.=835, low concentration screen",104%
same,remaining activity at 3.75 µM,"[2]; Well no.=835, high concentration screen",106%
"CN1C2CCC1CC(NC(=O)c1nn(C)c3ccccc13)C2 (stereo not drawn) [LY-278,584 maleate]",remaining activity at 1.25 µM,[1],98.8%
same,remaining activity at 3.75 µM,[2],101%
